Source: ChEMBL document CHEMBL1201862, “PubChem BioAssay data set” (2004)
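Cells were grown in 96-well plates and exposed to each compound for 48 hours at five concentrations; endpoints were interpolated linearly between bracketing concentrations, or set to the highest concentration if not reached. Here, GI50 denotes the concentration required for 50% inhibition of growth.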 Calls of active or inactive are those of the source. Rule as the data show it: active = GI50 up to about 1.1 µM and inactive = higher.

Legend:
Test in all cases: NCI tumour cell line growth inhibition, 48 h
[1] = test system: SW-620
[2] = test system: NCI-H226
[3] = test system: RXF 393
[4] = test system: HOP-92
[5] = test system: A549
[6] = test system: RPMI-8226
[7] = test system: HCT-116
[8] = test system: UACC-62
[9] = test system: SNB-19
[10] = test system: IGROV-1
[11] = test system: CAKI-1
[12] = test system: UO-31
[13] = test system: M14
[14] = test system: OVCAR-4
[15] = test system: SK-MEL-2
[16] = test system: NCI/ADR-RES
[17] = test system: TK-10
[18] = test system: 786-0
[19] = test system: T47D
[20] = test system: Hs-578T

| SMILES | GI50 [1] | GI50 [2] | GI50 [3] | GI50 [4] | GI50 [5] | GI50 [6] | GI50 [7] | GI50 [8] | GI50 [9] | GI50 [10] | GI50 [11] | GI50 [12] | GI50 [13] | GI50 [14] | GI50 [15] | GI50 [16] | GI50 [17] | GI50 [18] | GI50 [19] | GI50 [20] |
| --- | --- | --- | --- | --- | --- | --- | --- | --- | --- | --- | --- | --- | --- | --- | --- | --- | --- | --- | --- | --- |
| O=S(=O)(O)c1ccccc1/N=N\c1ccc(/N=N/c2c(O)ccc3ccccc23)c(S(=O)(=O)O)c1 | > 100 µM (inactive) | > 100 µM (inactive) | > 100 µM (inactive) | > 100 µM (inactive) | > 100 µM (inactive) | > 100 µM (inactive) | > 100 µM (inactive) | > 100 µM (inactive) | > 100 µM (inactive) | > 100 µM (inactive) | > 100 µM (inactive) | > 100 µM (inactive) | > 100 µM (inactive) | > 100 µM (inactive) | > 100 µM (inactive) | > 100 µM (inactive) | > 100 µM (inactive) | > 100 µM (inactive) | > 100 µM (inactive) | > 100 µM (inactive) |
| C[C@H](CCC(=O)NCC(=O)O)[C@H]1CC[C@H]2[C@@H]3[C@H](O)C[C@@H]4C[C@H](O)CC[C@]4(C)[C@H]3CC[C@]12C | > 100 µM (inactive) | > 100 µM (inactive) | > 100 µM (inactive) | > 100 µM (inactive) | > 100 µM (inactive) | > 100 µM (inactive) | > 100 µM (inactive) | > 100 µM (inactive) | > 100 µM (inactive) | > 100 µM (inactive) | > 100 µM (inactive) | > 100 µM (inactive) | > 100 µM (inactive) | > 100 µM (inactive) | > 100 µM (inactive) | > 100 µM (inactive) | > 100 µM (inactive) | > 100 µM (inactive) | > 100 µM (inactive) | > 100 µM (inactive) |
| Cc1cn(CCOCCOC(=O)NC(CCCNC(N)=O)C(=O)O)c(=O)[nH]c1=O (stereo not given) | > 100 µM (inactive) | > 100 µM (inactive) | > 100 µM (inactive) | > 100 µM (inactive) | > 100 µM (inactive) | > 100 µM (inactive) | > 100 µM (inactive) | > 100 µM (inactive) | > 100 µM (inactive) | 36 µM (inactive) | > 100 µM (inactive) | > 100 µM (inactive) | > 100 µM (inactive) | > 100 µM (inactive) | > 100 µM (inactive) | > 100 µM (inactive) | > 100 µM (inactive) | > 100 µM (inactive) | > 100 µM (inactive) | > 100 µM (inactive) |
| O=C(NCc1cccs1)OC1CC2CCC1C2 (stereo not given) | > 100 µM (inactive) | > 100 µM (inactive) | > 100 µM (inactive) | > 100 µM (inactive) | > 100 µM (inactive) | > 100 µM (inactive) | > 100 µM (inactive) | > 100 µM (inactive) | > 100 µM (inactive) | > 100 µM (inactive) | > 100 µM (inactive) | > 100 µM (inactive) | > 100 µM (inactive) | > 100 µM (inactive) | > 100 µM (inactive) | > 100 µM (inactive) | > 100 µM (inactive) | > 100 µM (inactive) | > 100 µM (inactive) | 81.5 µM (inactive) |
| CC(C)=CCC[C@@H](C)C1=C(O)C(=O)C(C)=C(N)C1=O | 43.1 µM (inactive) | 20.8 µM (inactive) | 32.9 µM (inactive) | 53.8 µM (inactive) | 25.8 µM (inactive) | 27.3 µM (inactive) | 45.1 µM (inactive) | 15.6 µM (inactive) | 32.5 µM (inactive) | 7.69 µM (inactive) | 24 µM (inactive) | 11.1 µM (inactive) | 20.5 µM (inactive) | 29.9 µM (inactive) | 29 µM (inactive) | 3.9 µM (inactive) | 50.2 µM (inactive) | 33.4 µM (inactive) | 23.9 µM (inactive) | 38.9 µM (inactive) |
| CC(=O)N(CCc1ccccc1)C(C)(C#N)c1ccccc1 (stereo not given) | > 100 µM (inactive) | > 100 µM (inactive) | > 100 µM (inactive) | > 100 µM (inactive) | > 100 µM (inactive) | > 100 µM (inactive) | > 100 µM (inactive) | > 100 µM (inactive) | > 100 µM (inactive) | > 100 µM (inactive) | > 100 µM (inactive) | > 100 µM (inactive) | > 100 µM (inactive) | > 100 µM (inactive) | > 100 µM (inactive) | > 100 µM (inactive) | > 100 µM (inactive) | > 100 µM (inactive) | > 100 µM (inactive) | > 100 µM (inactive) |
| O=C1CCC(c2ccccc2)=NN1c1nc2ccccc2s1 | 37.4 µM (inactive) | 90.8 µM (inactive) | 15.4 µM (inactive) | 26.7 µM (inactive) | 35.9 µM (inactive) | 27 µM (inactive) | 29.5 µM (inactive) | 30.3 µM (inactive) | 35.6 µM (inactive) | 34.9 µM (inactive) | 32.4 µM (inactive) | 31.5 µM (inactive) | 49.7 µM (inactive) | 36.7 µM (inactive) | 20.1 µM (inactive) | 28.7 µM (inactive) | 35.8 µM (inactive) | 38.3 µM (inactive) | 11.9 µM (inactive) | 36 µM (inactive) |
| CC(=O)O[C@H]1C#C/C=C\C#CC[C@@H]2C(=O)N(C(=O)OC(C)(C)C)[C@@H]12 | 48.8 µM (inactive) | 24.3 µM (inactive) | 15.4 µM (inactive) | 26.9 µM (inactive) | 16.6 µM (inactive) | 16.2 µM (inactive) | 17.4 µM (inactive) | 14.8 µM (inactive) | 18.7 µM (inactive) | 3.45 µM (inactive) | 6.46 µM (inactive) | 2.91 µM (inactive) | 28.3 µM (inactive) | > 100 µM (inactive) | 41.2 µM (inactive) | 15.7 µM (inactive) | > 55.1 µM (inactive) | 9.93 µM (inactive) | 32.7 µM (inactive) | 39.6 µM (inactive) |
| Nc1nnc2oc3ccc4ccccc4c3cc1-2 | 36.1 µM (inactive) | 21.5 µM (inactive) | 28 µM (inactive) | 26.2 µM (inactive) | 47.3 µM (inactive) | 30.5 µM (inactive) | 34.4 µM (inactive) | 29 µM (inactive) | 51.8 µM (inactive) | 30.6 µM (inactive) | 48.8 µM (inactive) | 32 µM (inactive) | 37.4 µM (inactive) | 30.8 µM (inactive) | 27.7 µM (inactive) | 30.9 µM (inactive) | 42 µM (inactive) | 34 µM (inactive) | 11.4 µM (inactive) | 54.5 µM (inactive) |
| O=[N+]([O-])c1ccc(O)c(/C=N/NC(=S)N2CCCCC2)c1 | 3.13 µM (inactive) | 1.55 µM (inactive) | 6.05 µM (inactive) | 4.17 µM (inactive) | 9.25 µM (inactive) | 2.79 µM (inactive) | 3.21 µM (inactive) | 3.3 µM (inactive) | 4.69 µM (inactive) | 1.67 µM (inactive) | 3.51 µM (inactive) | 0.91 µM (active) | 3.81 µM (inactive) | 6.24 µM (inactive) | 11.3 µM (inactive) | 1.59 µM (inactive) | 4.98 µM (inactive) | 1.84 µM (inactive) | 6.18 µM (inactive) | 13.8 µM (inactive) |
| CCOC(=O)C1=C(C)NC(=S)NC1c1cccc(O)c1 (stereo not given) [MONASTROL] | 44.3 µM (inactive) | 55 µM (inactive) | 25.5 µM (inactive) | 32.4 µM (inactive) | 52.1 µM (inactive) | 31 µM (inactive) | 34.9 µM (inactive) | 36.6 µM (inactive) | 76.4 µM (inactive) | 51.1 µM (inactive) | 63.8 µM (inactive) | > 100 µM (inactive) | 23.5 µM (inactive) | 66.1 µM (inactive) | 32.4 µM (inactive) | > 100 µM (inactive) | > 100 µM (inactive) | 57.9 µM (inactive) | 34.9 µM (inactive) | 45.7 µM (inactive) |
| CC1=NN(c2ccc(S(=O)(=O)O)cc2)C(=O)/C1=C/c1ccc(Cl)cc1.c1ccncc1 | > 100 µM (inactive) | > 100 µM (inactive) | > 100 µM (inactive) | > 100 µM (inactive) | > 100 µM (inactive) | > 100 µM (inactive) | > 100 µM (inactive) | > 100 µM (inactive) | > 100 µM (inactive) | > 100 µM (inactive) | > 100 µM (inactive) | > 100 µM (inactive) | > 100 µM (inactive) | > 100 µM (inactive) | > 100 µM (inactive) | > 100 µM (inactive) | > 100 µM (inactive) | > 100 µM (inactive) | > 100 µM (inactive) | > 100 µM (inactive) |
| Cn1c2ccc(F)cc2c2ccc3c(c21)C(=O)C=CC3=O | 2.66 µM (inactive) | 20.3 µM (inactive) | 3.28 µM (inactive) | 6.22 µM (inactive) | > 64.1 µM (inactive) | 6.93 µM (inactive) | 6.73 µM (inactive) | 20.5 µM (inactive) | 50.8 µM (inactive) | 14.6 µM (inactive) | 4.23 µM (inactive) | 7.52 µM (inactive) | 12.1 µM (inactive) | 5.14 µM (inactive) | 23.1 µM (inactive) | 20.2 µM (inactive) | 4.56 µM (inactive) | 3.41 µM (inactive) | 2.77 µM (inactive) | 29.9 µM (inactive) |
| Cc1ccc(C2SCC(=O)N2c2ccc(-n3c(-c4ccccc4)nc4ccccc4c3=O)cc2)cc1 (stereo not given) | 34.6 µM (inactive) | 18.5 µM (inactive) | 22.8 µM (inactive) | 15.2 µM (inactive) | 25.1 µM (inactive) | 13.7 µM (inactive) | 7.82 µM (inactive) | 11.5 µM (inactive) | 26.9 µM (inactive) | 20.5 µM (inactive) | 30.1 µM (inactive) | 16.2 µM (inactive) | 23.3 µM (inactive) | 22.8 µM (inactive) | 20.8 µM (inactive) | 19.3 µM (inactive) | 50.9 µM (inactive) | 18.7 µM (inactive) | 15.5 µM (inactive) | 10 µM (inactive) |
